Like-named read-outs stand apart in the source and are kept apart here.
What was measured:
Assay type in all cases: cell-based
[1] = system: HIV-1 integrase mutant virus Y143R; experiment: Single cycle infectivity assay in HeLa P4-2 cells, integrase mutant Y143R virus; settings: fold shift in IC50 versus wild type IIIB
Method: (§1) An assay for measuring the inhibition of acute HIV-1 infection with HeLa P4-2 cells in a single cycle infectivity assay was conducted using methods described in Joyce et al., J. Biol. Chem. 2002, 277: 45811, Hazuda et al., Science 2000, 287: 646, and Kimpton et al, J. Virol. 1992, 66: 2232. Proviral plasmids encoding viruses containing specific mutations in the integrase gene (N155H, Q148R, Y143R, E92Q, or G140S/Q148H) were generated by site-directed mutagenesis, and viruses were produced by transfecting 293T cells with the appropriate proviral plasmids.

[2] = system: HIV-1 integrase mutant virus G140S/Q148H; experiment: Single cycle infectivity assay in HeLa P4-2 cells, integrase mutant G140S/Q148H virus; settings: fold shift in IC50 versus wild type IIIB
Method: as §1

[3] = system: HIV-1 integrase mutant virus Q148R; experiment: Single cycle infectivity assay in HeLa P4-2 cells, integrase mutant Q148R virus; settings: fold shift in IC50 versus wild type IIIB
Method: as §1

[4] = system: HIV-1 integrase mutant virus N155H; experiment: Single cycle infectivity assay in HeLa P4-2 cells, integrase mutant N155H virus; settings: fold shift in IC50 versus wild type IIIB
Method: as §1

HIV-1 wild type IIIB = experiment: Single cycle infectivity assay in HeLa P4-2 cells, wild type virus
Method: as §1

HIV-1 = experiment: Inhibition of acute HIV-1 infection of T-lymphoid cells (spread assay); settings: 10% FBS, read-out: IC95 (nM) in the presence of 10% FBS
Method: Assays for the inhibition of acute HIV-1 infection of T-lymphoid cells were conducted in accordance with Vacca, J. P. et al., Proc. Natl. Acad. Sci. USA 1994, 91: 4096.

[5] = Human immunodeficiency virus 1, IIIB, HeLaP4-2, wild type IIIB
[6] = Human immunodeficiency virus 1, T-lymphoid

With `CN(C)C(=O)C(=O)N(C)C1CCCCn2c1nc(C(=O)NCc1ccc(F)cc1)c(O)c2=O` (stereo not drawn) [Compound Y, (—)N-(2-{[(4-fluorobenzyl)amino]-carbonyl}-3-hydroxy-4-oxo-4,6,7,8,9,10-hexahydropyrimido[1,2-a]azepin-10-yl)-N,N′,N′-trimethylethanediamide, reference compound] the “Y143R (shift)” value [1] was 1 fold, the “G140S/Q148H (shift)” value [2] was 410 fold and the “Q148R (shift)” value [3] was 26 fold. For the same molecule, the “N155H (shift)” value [4] was 15 fold and the IC50 (HIV-1 wild type IIIB; [5]) was 16 nM.

For `CN(C)C(=O)C(=O)N(C)C12CCC(C)(Cn3c1nc(C(=O)NCc1ccc(F)cc1)c(O)c3=O)OC2` (single isomer, unassigned) [Example 21A], the IC95 (HIV-1; [6]) was 20 nM, the “Y143R (shift)” value [1] was 1 fold and the “G140S/Q148H (shift)” value [2] was 73 fold. For the same molecule, the “Q148R (shift)” value [3] was 3 fold, the “N155H (shift)” value [4] was 3 fold and the IC50 (HIV-1 wild type IIIB; [5]) was 20 nM.

With `CCN(C(=O)C(=O)N(C)C)C12CCC(Cn3c1nc(C(=O)NCc1ccc(F)c(C)c1)c(O)c3=O)OC2` (stereo not drawn) [Example 18A, N-ethyl-N-(4-{[(4-fluoro-3-methylbenzyl)amino]carbonyl}-5-hydroxy-6-oxo-10-oxa-3,7-diazatricyclo[7.2.2.0^2,7]trideca-2,4-dien-1-yl)-N,N-dimethylethanediamide] the IC95 (HIV-1; [6]) was 9.8 nM, the “Y143R (shift)” value [1] was 2 fold and the “G140S/Q148H (shift)” value [2] was greater than 88 fold. The “Q148R (shift)” value [3] was 7 fold, the “N155H (shift)” value [4] was 8 fold and the IC50 (HIV-1 wild type IIIB; [5]) was 19 nM.

For `Cc1nnc(C(=O)NC(C)(C)c2nc(C(=O)NCc3ccc(F)cc3)c(O)c(=O)n2C)o1` [Compound X, raltegravir, reference compound], the “Y143R (shift)” value [1] was 15 fold, the “G140S/Q148H (shift)” value [2] was 400 fold and the “Q148R (shift)” value [3] was 22 fold. The “N155H (shift)” value [4] was 13 fold and the IC50 (HIV-1 wild type IIIB; [5]) was 52 nM.

`CN(C(=O)C(=O)N1CCOCC1)C12CCC(Cn3c1nc(C(=O)NCc1ccc(F)cc1)c(O)c3=O)C2` (stereo not drawn) [Example 9, N-(4-Fluorobenzyl)-3-hydroxy-10-{methyl[morpholin-4-yl(oxo)acetyl]amino}-4-oxo-4,6,7,8,9,10-hexahydro-7,10-methanopyrimido[1,2-a]azepine-2-carboxamide] was tested, and the IC95 (HIV-1; [6]) was 15 nM, the “Y143R (shift)” value [1] was 2 fold and the “G140S/Q148H (shift)” value [2] was 40 fold. For the same molecule, the “Q148R (shift)” value [3] was 11 fold, the “N155H (shift)” value [4] was 5 fold and the IC50 (HIV-1 wild type IIIB; [5]) was 43 nM.

`CNC(=O)C(=O)N(C)C12CCC(OC1)C(C)n1c2nc(C(=O)NCc2ccc(F)cc2)c(O)c1=O` (single isomer, unassigned) [Example 28B, N-(4-{[(4-fluorobenzyl)amino]carbonyl}-5-hydroxy-8-methyl-6-oxo-10-oxa-3,7-diazatricyclo[7.2.2.0^2,7]trideca-2,4-dien-1-yl)-N,N′-dimethylethanediamide] showed an IC95 (HIV-1) of 15.9 nM.

For `CCC1C2CCC(NC(=O)C(=O)N(C)C)(CO2)c2nc(C(=O)NCc3ccc(F)cc3)c(O)c(=O)n21` (single isomer, unassigned) [Example 26C, N′-(8-ethyl-4-{[(4-fluorobenzyl)amino]carbonyl}-5-hydroxy-6-oxo-10-oxa-3,7-diazatricyclo[7.2.2.0^2,7]trideca-2,4-dien-1-yl)-N-dimethylethanediamide], the IC95 (HIV-1) was 18.1 nM, the “Y143R (shift)” value [1] was 2 fold and the “G140S/Q148H (shift)” value [2] was 26 fold. The “Q148R (shift)” value [3] was 9 fold, the “N155H (shift)” value [4] was 12 fold and the IC50 (HIV-1 wild type IIIB; wild type IIIB) was 23 nM.

In the case of `CCN(C(=O)C(=O)N(C)C)C12CCC(Cn3c1nc(C(=O)NCc1ccc(F)c(C)c1)c(O)c3=O)OC2` (single isomer, unassigned) [Example 18B, N-ethyl-N-(4-{[(4-fluoro-3-methylbenzyl)amino]carbonyl}-5-hydroxy-6-oxo-10-oxa-3,7-diazatricyclo[7.2.2.0^2,7]trideca-2,4-dien-1-yl)-N,N-dimethylethanediamide], the IC95 (HIV-1; [6]) is reported as 10.7 nM, the “Y143R (shift)” value [1] is reported as 2 fold and the “G140S/Q148H (shift)” value [2] is reported as 19 fold. The “Q148R (shift)” value [3] was 2 fold, the “N155H (shift)” value [4] was 2 fold and the IC50 (HIV-1 wild type IIIB; [5]) was 10 nM.

`CCN(C(=O)C(=O)N(C)C)C12CCC(OC)(CC1)Cn1c2nc(C(=O)NCc2ccc(F)cc2)c(O)c1=O` [Example 16, N-Ethyl-N-(4-{[(4-fluorobenzyl)amino]carbonyl}-5-hydroxy-9-methoxy-6-oxo-3,7-diazatricyclo[7.2.2.0^2,7]trideca-2,4-dien-1-yl)-N,N′-dimethylethanediamide] was tested, and the IC95 (HIV-1; [6]) was 11.3 nM, the “Y143R (shift)” value [1] was 1 fold and the “G140S/Q148H (shift)” value [2] was 15 fold. For the same molecule, the “Q148R (shift)” value [3] was 1 fold, the “N155H (shift)” value [4] was 3 fold and the IC50 (HIV-1 wild type IIIB; [5]) was 15 nM.

`CC1C2CCC(N(C)C(=O)C(=O)N(C)C)(CO2)c2nc(C(=O)NCc3ccc(F)cc3)c(O)c(=O)n21` (single isomer, unassigned) [Example 27A, N-(4-{[(4-fluorobenzyl)amino]carbonyl}-5-hydroxy-8-methyl-6-oxo-10-oxa-3,7-diazatricyclo[7.2.2.0^2,7]trideca-2,4-dien-1-yl)-N,N′,N′-trimethylethanediamide] was tested, and the IC95 (HIV-1) was 7.5 nM, the “Y143R (shift)” value [1] was 1 fold and the “G140S/Q148H (shift)” value [2] was 2 fold. The “Q148R (shift)” value [3] was 1 fold, the “N155H (shift)” value [4] was 1 fold and the IC50 (HIV-1 wild type IIIB; wild type IIIB) was 20 nM.

With `CCC1C2CCC(N(C)C(=O)C(=O)N(C)C)(CO2)c2nc(C(=O)NCc3ccc(F)cc3)c(O)c(=O)n21` (single isomer, unassigned) [Example 25B, N-(8-ethyl-4-{[(4-fluorobenzyl)amino]carbonyl}-5-hydroxy-6-oxo-10-oxa-3,7-diazatricyclo[7.2.2.0^2,7]trideca-2,4-dien-1-yl)-N,N′,N′-trimethylethanediamide] the IC95 (HIV-1) was 7.9 nM, the “Y143R (shift)” value [1] was 1 fold and the “G140S/Q148H (shift)” value [2] was 1 fold. For the same molecule, the “Q148R (shift)” value [3] was 1 fold, the “N155H (shift)” value [4] was 1 fold and the IC50 (HIV-1 wild type IIIB; wild type IIIB) was 8 nM.

For `CC1C2CCC(NC(=O)C(=O)N(C)C)(CO2)c2nc(C(=O)NCc3ccc(F)cc3)c(O)c(=O)n21` (single isomer, unassigned) [Example 29A, N′-(4-{[(4-Fluorobenzyl)amino]carbonyl}-5-hydroxy-8-methyl-6-oxo-10-oxa-3,7-diazatricyclo[7.2.2.0^2,7]trideca-2,4-dien-1-yl)-N-dimethylethanediamide], the IC95 (HIV-1) was 17.9 nM, the “Y143R (shift)” value [1] was 1 fold and the “G140S/Q148H (shift)” value [2] was 4 fold. The “Q148R (shift)” value [3] was 1 fold, the “N155H (shift)” value [4] was 1 fold and the IC50 (HIV-1 wild type IIIB; wild type IIIB) was 20 nM.

For `CCCN(C(=O)C(=O)N(C)C)C12CCC(Cn3c1nc(C(=O)NCc1ccc(F)cc1)c(O)c3=O)OC2` (stereo not drawn) [Example 19, N-(4-{[(4-fluorolbenzyl)amino]carbonyl}-5-hydroxy-6-oxo-10-oxa-3,7-diazatricyclo[7.2.2.0^2,7]trideca-2,4-dien-1-yl)-N′,N′-dimethyl-N-propylethanediamide], the IC95 (HIV-1; [6]) was 15.9 nM, the “Y143R (shift)” value [1] was 7 fold and the “G140S/Q148H (shift)” value [2] was greater than 209 fold. For the same molecule, the “Q148R (shift)” value [3] was 59 fold, the “N155H (shift)” value [4] was 45 fold and the IC50 (HIV-1 wild type IIIB; [5]) was 8 nM.

In the case of `COC12CCC(N(C)C(=O)C(=O)N(C)C)(CC1)c1nc(C(=O)NCc3ccc(F)c(C)c3)c(O)c(=O)n1C2` [Example 14, N-(4-{[(4-Fluoro-3-methylbenzyl)amino]carbonyl}-5-hydroxy-9-methoxy-6-oxo-3,7-diazatricyclo[7.2.2.0^2,7]trideca-2,4-dien-1-yl)-N,N′,N′-trimethylethanediamide], the IC95 (HIV-1; [6]) is reported as 13.1 nM, the “Y143R (shift)” value [1] is reported as 2 fold and the “G140S/Q148H (shift)” value [2] is reported as 4 fold. The “Q148R (shift)” value [3] was 1 fold, the “N155H (shift)” value [4] was 2 fold and the IC50 (HIV-1 wild type IIIB; [5]) was 12 nM.

For `CCC1C2CCC(NC(=O)C(=O)N(C)C)(CO2)c2nc(C(=O)NCc3ccc(F)cc3)c(O)c(=O)n21` (single isomer, unassigned) [Example 26A, N′-(8-ethyl-4-{[(4-fluorobenzyl)amino]carbonyl}-5-hydroxy-6-oxo-10-oxa-3,7-diazatricyclo[7.2.2.0^2,7]trideca-2,4-dien-1-yl)-N-dimethylethanediamide], the IC95 (HIV-1) was 16.0 nM, the “Y143R (shift)” value [1] was 2 fold and the “G140S/Q148H (shift)” value [2] was greater than 70 fold. For the same molecule, the “Q148R (shift)” value [3] was 9 fold, the “N155H (shift)” value [4] was 9 fold and the IC50 (HIV-1 wild type IIIB; wild type IIIB) was 24 nM.

With `CC1C2CCC(NC(=O)C(=O)N(C)C)(CO2)c2nc(C(=O)NCc3ccc(F)cc3)c(O)c(=O)n21` (single isomer, unassigned) [Example 29B, N′-(4-{[(4-Fluorobenzyl)amino]carbonyl}-5-hydroxy-8-methyl-6-oxo-10-oxa-3,7-diazatricyclo[7.2.2.0^2,7]trideca-2,4-dien-1-yl)-N-dimethylethanediamide] the “Y143R (shift)” value [1] was 2 fold, the “G140S/Q148H (shift)” value [2] was 2 fold and the “Q148R (shift)” value [3] was 3 fold. The “N155H (shift)” value [4] was 1 fold and the IC50 (HIV-1 wild type IIIB; wild type IIIB) was 69 nM.

In the case of `CC1(C)OCCn2c1nc(C(=O)NCc1ccc(F)cc1)c(O)c2=O` [Compound Z, N-[(4-fluorophenyl)methyl]-3-hydroxy-9,9-dimethyl-4-oxo-4,6,7,9-tetrahydro-6H-pyrimido[2,1-c][1,4]oxazine-2-carboxamide, reference compound], the “Y143R (shift)” value [1] is reported as 1 fold, the “G140S/Q148H (shift)” value [2] is reported as greater than 34 fold and the “Q148R (shift)” value [3] is reported as greater than 34 fold. For the same molecule, the “N155H (shift)” value [4] was 32 fold and the IC50 (HIV-1 wild type IIIB; wild type IIIB) was 34 nM.

— patent US20120022045A1, “BRIDGED COMPOUNDS AS HIV INTEGRASE INHIBITORS” (priority 2009, published 2012)
